Measurements taken from patent US7429564B2, “Oral insulin therapy” (Emisphere Technologies, Inc., priority 2002, dated 2008).

Assays:
[1] = parameters: species or system rats; details: rat, in vivo, po
Procedure: Similarly, for a fixed oral dose of 4-CNAB, insulin absorption increases with increasing doses of insulin. Oral insulin absorption was evaluated in rats at varying doses of both insulin and 4-CNAB. […] The mean peak serum insulin levels were 31, 44, 85, and 132 μU/mL respectively. Insulin absorption was dose dependent and increased as the dose of insulin increased. […] The mean peak serum insulin levels were 9, 39, 103, and 157 μU/mL, respectively. Insulin absorption was dose dependent and increased as the dose of 4-CNAB increased.

[2] = monkey, in vivo
[3] = tested on: plasma C-peptide; experiment: Example 6: plasma C-peptide during glucose clamp; assay type: in vivo, human; details: for C-peptide level, mean: 15 U SC
Procedure: During each study period, blood samples were collected for the determination of plasma insulin concentrations, plasma C-peptide and plasma glucose concentration. Sampling occurred from 6 hrs before dosing and continued for 6 hrs after the dose was administered. Blood samples were collected via a venous cannula. Blood samples were collected relative to the administration of the study drug (1) prior to study of drug administration at −1 and −0.5 hrs, (2) immediately after study drug administration (time 0), and (3) post administration of the study drug at 10, 20, 30, 40, 50 min, and 1, 1.25, 1.5, 1.75, 2, 2.5, 3, 3.5, 4, 5, and 6 hrs
Blood samples were collected from each patient during each treatment period for determination of plasma insulin concentrations, plasma C-peptide, and plasma glucose. Glucose infusion rates and blood glucose measurements were measured continuously during the glucose clamp procedure. All treatments were identical in their sample collection and monitoring periods for all visits. After a 6 hours pre-dose baseline period for stabilization of blood glucose concentrations at the desired clamp level, the clamp procedure after study drug administration lasted 6 hours.

[4] = in vivo, sc
Source text: Safety assessments included physical examinations, medical history, vital signs, 12-lead electrocardiogram (ECG) monitoring, laboratory evaluations and checking for adverse events. Activity parameters included blood glucose, insulin, C-peptide, and 4-CNAB plasma concentration measurements.

[5] = Delivery agent plasma concentrations in monkeys after oral administration; assay type: in vivo
Procedure: Similar results were obtained when delivery agents 1-3 were administered orally to monkeys and the plasma concentrations of the delivery agents monitored over time and the AUC calculated.

[6] = tested on: primary molecular targets; experiment: Receptor binding screening assays
Procedure: (§1) The present invention comprising compositions of insulin and the delivery agent 4-CNAB was evaluated for safety and toxicity in a nonclinical program that included pharmacological screening, pharmacokinetic profiling, and toxicity assessments in rats and monkeys.

[7] = Genotoxicity studies; details: four studies
Procedure: as §1

[8] = Nonclinical pharmacokinetic studies of 4-CNAB; assay type: in vivo; details: mice, rats and monkeys
Procedure: as §1

Molecule: oral insulin alone: recombinant human zinc insulin given orally without delivery agent
- Change in serum insulin levels [1]: did not result in any significant increases in serum insulin levels
- Absolute bioavailability of insulin [2]: ≤ 1%

Molecule: SC insulin: human regular insulin injected subcutaneously (Humulin R or equivalent; Calbiochem insulin in the rat studies)
- Change in C-peptide during treatment periods ([3]; 15 IU s.c., 300 IU oral and 150 IU oral): no significant changes
- C-peptide level, mean ([3]; 10 minutes): 1.05 nmol/L
- C-peptide level, mean ([3]; 20 minutes): 1.07 nmol/L
- C-peptide level, mean ([3]; 30 minutes): 1.09 nmol/L
- C-peptide level, mean ([3]; 40 minutes): 1.11 nmol/L
- C-peptide level, mean ([3]; 50 minutes): 1.05 nmol/L
- C-peptide level, mean ([3]; 60 minutes): 1.04 nmol/L
- C-peptide level, mean ([3]; 75 minutes): 1.07 nmol/L
- C-peptide level, mean ([3]; 90 minutes): 1.03 nmol/L
- C-peptide level, mean ([3]; 105 minutes): 1.01 nmol/L
- C-peptide level, mean ([3]; 120 minutes): 0.99 nmol/L
- C-peptide level, mean ([3]; 150 minutes): 1.01 nmol/L
- C-peptide level, mean ([3]; 180 minutes): 0.99 nmol/L
- C-peptide level, mean ([3]; 210 minutes): 0.97 nmol/L
- C-peptide level, mean ([3]; 240 minutes): 0.94 nmol/L
- C-peptide level, mean ([3]; 300 minutes): 0.96 nmol/L
- C-peptide level, mean ([3]; 360 minutes): 0.92 nmol/L
- C-peptide level, mean ([3]; Time 0): 1.04 nmol/L
- C-peptide level, mean ([3]; −30 minutes): 1.05 nmol/L
- C-peptide level, mean ([3]; −60 minutes): 1.02 nmol/L
- Hypoglycemia occasions requiring rescue treatment [4]: twelve
- Treatment-related adverse events [4]: sixteen events

Molecule: O=C(O)CCCNC(=O)c1ccc(Cl)cc1O [4-CNAB, 4-[(4-chloro, 2-hydroxybenzoyl)amino]butanoic acid]
- Fold greater penetration of the GI mucosa vs delivery agent 1 ([5]; 300 mg oral each): more than 11 fold
- Fold greater penetration of the GI mucosa vs delivery agent 2 ([5]; 300 mg oral each): more than 6 fold
- AUC ([5]; monkey, plasma, oral, 300 mg): 499 ng·h/mL
- Activity in receptor binding screening [6]: did not demonstrate potential activity in any of the primary molecular targets
- Genotoxicity findings [7]: no positive findings
- Absorption after oral administration [8]: absorbed rapidly following oral administration, and subsequently cleared from the body
